Laboratory results: patent EP2600854B1, “PHENETHYL, PHENETHYLENE, PHENETHYNE AND INDANONE DERIVATES IN COSMETIC FORMULATIONS, ESPECIALLY FOR USE IN SKIN AGEING PROCESSES” (Merck Patent GmbH, priority 2010, dated 2012)
Values after ≈ are worked out from the molar mass of the structure shown. Where two headings read alike, the source gives them in different places.

Legend:
[1] = Solubility comparison in the cosmetic oil isopropyl myristate; format: physicochemical; details: for solubility: isopropyl myristate, organic solvent or mixture, Isopropylmyristat, read-out: Löslichkeiten
Experimental: Im Parallelversuch werden 20mg der Substanz 4a mit zunächst 800µL Isopropylmyristat versetzt. […] Daraus errechnen sich Löslichkeiten für 1 a von mindestens 2,5% bzw. für 4a von maximal 1,0% bezogen auf das eingesetzte Volumen Öl. Im anschließenden Verifizierungsexperiment bei Raumtemperatur von 23°C ergeben sich Löslichkeiten von 2,4% für 1 a sowie 0,4% für 4a.

[2] = In-situ generation of 4a from 1a under sun-simulated radiation (Suntester), HPLC analysis; format: physicochemical; details: 5mg 1a in 10 mL Ethanol
Experimental: 5mg der Substanz 1 a werden in 10 mL Ethanol gelöst. Mit der Lösung wird ein NMR-Röhrchen vollständig befüllt, verschlossen und für 4 Stunden im Suntester sonnensimulierter Strahlung ausgesetzt (Atlas CPS+ Suntester, 765 Wm^-2). Nach Bestrahlung wird die Lösung per HPLC untersucht. Im Dunkelexperiment ist die Substanz 4a abwesend, während im Belichtungexperiment Substanz 4a zu 2% bei der Detektionswellenlänge von 272nm nachgewiesen wird.

[3] = 30°C, bezogen auf das eingesetzte Volumen Öl, calculated from 20mg in 800µL (1a) or 800µL + 1200µL (4a)
[4] = Verifizierungsexperiment bei Raumtemperatur von 23°C

Dissolution of 20mg in 800µL Isopropylmyristat ([1]; 20mg, 30°C)	solubility [1, 3] [mg/mL]	solubility [1, 4] [mg/mL]	Substanz 4a nachgewiesen (HPLC) im Belichtungexperiment ([2]; 4 Stunden sonnensimulierte Strahlung (Atlas CPS+ Suntester, 765 Wm^-2), Detektionswellenlänge 272nm) [%]	Substanz 4a (HPLC) im Dunkelexperiment ([2]; no irradiation)	Compound	Dissolution of 20mg after addition of further 1200µL Isopropylmyristat ([1]; 20mg, 800µL + 1200µL Isopropylmyristat)
vollständig gelöst	≥ 25	24 (≈ 81.5 mM)	2	abwesend	COc1ccc(C(=O)/C=C/c2ccc(C(C)(C)C)cc2)cc1 [1a, E-3-(4-tert.-Butyl-phenyl)-1-(4-methoxy-phenyl)-propenon]	–
keine vollständige Löslichkeit	≤ 10	4 (≈ 13.6 mM)	–	–	COc1ccc2c(c1)C(c1ccc(C(C)(C)C)cc1)CC2=O (stereo not drawn) [4a, 3-(4-tert.-Butyl-phenyl)-5-methoxy-indan-1-on]	deutlicher Bodensatz in der trüben Dispersion
